Tests used:
[1] = Serum half life of cytosine arabinoside in beagle dogs with or without tetrahydrouridine; conditions: dog, in vivo
Source text: (§1) This is especially reflected in a drop in the blood level of cytosine arabinoside, usually concomitant with an increase in uracil arabinoside. This destruction of cytosine arabinoside is brought about by a deaminase enzyme present in the blood and tissues of the animal. […] For example, deamination of cytosine arabinoside in rhesus monkey blood by liver deaminase was inhibited about 90% by the addition of one part of 4-hydroxyl-1-β-D-ribofuranosyl-tetrahydro-2(1H)-pyrimidinone (tetrahydrouridine) to 820 parts of cytosine arabinoside.

[2] = test system: myelogenous leukemia; conditions: adults; 1 to 5 mg./kg. weekly intravenously or subcutaneously as maintenance; cited from earlier work
[3] = target: deaminase enzymes (centrifuged 25 percent homogenate of normal human liver) (Homo sapiens, UniProt P32320); experiment: Competitive efficacy (C.E.) test: inhibition of cytosine arabinoside deamination; conditions: 1.0 micromole tritiated Ca, pH 8.0, 37° C., 45 minutes
Description: The inhibition of cytosine arabinoside deamination by a compound is conveniently expressed in terms of its competitive efficacy (C.E.). The competitive efficacy of a compound is determined as follows:
Enzyme reaction mixture are prepared in 12-ml. centrifuge tubes in an ice bath. […] This is the standard reaction mixture. […] The tubes are then assayed for radioactive uracil arabinoside as described below, and the percent conversion of tritiated Ca to tritiated uracil arabinosie is calculated. A standard curve of the percent conversion vs. log10 of the initial ratio of untritiated Ca to tritiated Ca is plotted. This is the standard curve for the C.E. test.
Reaction mixture for C.E. test.
To determine the C.E. of a compound, known amounts of the compound are added to the above standard reaction mixture and the percent conversion of tritiated Ca to tritiated uracil arabinoside is measured. […] From this ratio and the amount of test compound in the assay reaction mixture, the C.E. is calculated. […]
After 45 minute incubation of the enzyme reaction mixtures, further reaction is stopped by the addition of one-half volume of iced, 15 percent trichloroacetic acid. […] Suitable quantities (4 microliters) of clear supernatant solution are co-chromatographed with a mixture of 40 millimicromoles each of non-tritiated carrier Ca and uracil arabinoside on Whatman No. 40 paper. […]

[4] = test system: liver deaminase; experiment: Deamination of cytosine arabinoside in rhesus monkey blood by liver deaminase; type: biochemical; conditions: one part of tetrahydrouridine to 820 parts of cytosine arabinoside
Source text: as §1

deaminase enzymes (centrifuged 25 percent homogenate of normal human liver), sequence (P32320 whole entry): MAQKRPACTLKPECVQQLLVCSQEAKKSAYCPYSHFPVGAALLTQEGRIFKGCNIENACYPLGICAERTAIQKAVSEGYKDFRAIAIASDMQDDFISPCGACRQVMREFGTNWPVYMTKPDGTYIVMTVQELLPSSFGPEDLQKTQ

In the case of `Nc1ccn([C@@H]2O[C@H](CO)[C@@H](O)[C@@H]2O)c(=O)n1` [cytosine arabinoside, 1-β-D-arabinofuranosylcytosine, reference compound], the half-life ([1]; control dogs without tetrahydrouridine, 50 mg./kg. cytosine arabinoside intravenous) is listed as 1.1 to 1.33 h and the “duration of remission of myelogenous leukemia (bone marrow response)” value [2] is listed as “more than 203 days”.
For `O=C1NCCCN1[C@@H]1O[C@H](CO)[C@@H](O)[C@H]1O` [E], the “Competitive Efficacy” value [3] was 200.
For `O=C1NC(O)CCN1[C@@H]1O[C@H](CO)[C@@H](O)[C@H]1O` (single isomer, unassigned) [tetrahydrouridine, 4-hydroxy-1-β-D-ribofuranosyl-tetrahydro-2(1H)-pyrimidinone], the “inhibition of deamination of cytosine arabinoside” value [4] was “about 90%” and the “half life of cytosine arabinoside in the serum” value ([1]; iv) was 2.27 to 3 h.
